Read-outs that look alike come from different tables or passages of the source.
Target: IDH1 R132H (Homo sapiens, UniProt O75874, R132H)
Experiment: Assay for IDH1 R132H inhibitors (NADPH/aKG, resazurin detection)
Format: biochemical
Protocol: Assays were conducted in a volume of 76 μl assay buffer (150 mM NaCl, 10 mM MgCl2, 20 mM Tris pH 7.5, 0.03% bovine serum albumin) as follows in a standard 384-well plate: To 25 ul of substrate mix (8 uM NADPH, 2 mM aKG), 1 μl of test compound was added in DMSO. The plate was centrifuged briefly, and then 25 μl of enzyme mix was added (0.2 μg/ml IDH1 R132H) followed by a brief centrifugation and shake at 100 RPM. The reaction was incubated for 50 minutes at room temperature, then 25 μl of detection mix (30 μM resazurin, […]) was added and the mixture further incubated for 5 minutes at room temperature. The conversion of resazurin to resorufin was detected by fluorescent spectroscopy at Ex544 Em590 c/o 590.

[1] = enzyme assay of Example 12, read-out: IDH1R132H IC50
[2] = Table 3, enzyme assay, 50 minutes at room temperature, read-out: IC50 (IDH1 R132H Inhibition)

IDH1 R132H, sequence (O75874 whole entry R132H): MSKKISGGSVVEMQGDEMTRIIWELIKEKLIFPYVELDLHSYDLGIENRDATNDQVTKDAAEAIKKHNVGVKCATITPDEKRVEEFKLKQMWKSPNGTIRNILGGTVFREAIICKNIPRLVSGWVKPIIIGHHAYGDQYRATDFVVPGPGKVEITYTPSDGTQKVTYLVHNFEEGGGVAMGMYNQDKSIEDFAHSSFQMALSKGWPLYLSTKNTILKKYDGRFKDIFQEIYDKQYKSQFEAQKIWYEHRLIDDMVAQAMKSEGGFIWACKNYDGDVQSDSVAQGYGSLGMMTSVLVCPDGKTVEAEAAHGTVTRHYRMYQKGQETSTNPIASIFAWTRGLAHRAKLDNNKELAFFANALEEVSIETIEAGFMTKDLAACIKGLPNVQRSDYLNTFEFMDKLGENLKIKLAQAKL

| Structure (SMILES) | IC50 [1] [µM] | IC50 [2] [µM] |
| --- | --- | --- |
| CN(C)c1nccc(-c2cc(C#N)c(N3CCN(C(=O)CC(F)(F)F)[C@H](C4CC4)C3)nc2C2CC2)n1 [Compound 521, (R)-6-cyclopropyl-2-(3-cyclopropyl-4-(3,3,3-trifluoropropanoyl)piperazin-1-yl)-5-(2-(dimethylamino)pyrimidin-4-yl)nicotinonitrile] | < 0.5 |  |
| COCCC(=O)N1CCN(c2nc(C3CC3)c(-c3ccc(OCC4CC4)cc3)c(C)c2C#N)C[C@H]1C [Compound 336, (R)-6-cyclopropyl-5-(4-cyclopropylmethoxy-phenyl)-2-[4-(3-methoxy-propionyl)-3-methyl-piperazin-1-yl]-4-methyl-nicotinonitrile] | 0.5 to 1 |  |
| N#Cc1cc(-c2ccnc(Cl)c2F)c(C2CC2)nc1N1CCN(C(=O)C2CC2)[C@H](C2CC2)C1 [Compound 509, (R)-2′-chloro-6-(4-(cyclopropanecarbonyl)-3-cyclopropylpiperazin-1-yl)-2-cyclopropyl-3′-fluoro-3,4′-bipyridine-5-carbonitrile] | 0.5 to 1 |  |
| CC(C)c1cc(-c2cccc(F)c2)c(C#N)c(N2CCN(C(=O)c3ccoc3)C(C)C2)n1 (stereo not drawn) [Compound 128, 4-(3-fluorophenyl)-2-(4-(furan-3-carbonyl)-3-methylpiperazin-1-yl)-6-isopropylnicotinonitrile] |  | 1 to 5 |
| N#Cc1cc(-c2cc(CCN)nc(N)n2)c(C2CC2)nc1N1CCN(C(=O)C2CC2)[C@H](C2CC2)C1 [Compound 701, (R)-5-(2-amino-6-(2-aminoethyl)pyrimidin-4-yl)-2-(4-(cyclopropanecarbonyl)-3-cyclopropylpiperazin-1-yl)-6-cyclopropylnicotinonitrile] | < 0.5 |  |
| CC(C)c1cc(-c2ccccc2)c(C#N)c(N2CCN(C(=O)c3ccoc3)C(c3ccccc3)C2)n1 (stereo not drawn) [Compound 154, 2-(4-(furan-3-carbonyl)-3-phenylpiperazin-1-yl)-6-isopropyl-4-phenylnicotinonitrile] |  | 5 to 15 |
| N#Cc1cc(-c2cnnc3ccccc23)c(C2CC2)nc1N1CCN(C(=O)C2CC2)[C@H](C2CC2)C1 [Compound 495, (R)-5-(cinnolin-4-yl)-2-(4-(cyclopropanecarbonyl)-3-cyclopropylpiperazin-1-yl)-6-cyclopropylnicotinonitrile] | 0.5 to 1 |  |
| C=CC(=O)N1CC=C(c2cc(C#N)c(N3CCN(C(=O)C4CC4)[C@H](C)C3)nc2C2CC2)CC1 [Compound 630, (R)-5-(1-acryloyl-1,2,3,6-tetrahydropyridin-4-yl)-2-(4-(cyclopropanecarbonyl)-3-methylpiperazin-1-yl)-6-cyclopropylnicotinonitrile] | 0.5 to 1 |  |
| N#Cc1cc(-c2ccc(C(F)(F)F)nc2)c(C2CC2)nc1N1CCN(C(=O)C2CC2)[C@H](C2CC2)C1 [Compound 567, (R)-6-(4-(cyclopropanecarbonyl)-3-cyclopropylpiperazin-1-yl)-2-cyclopropyl-6′-(trifluoromethyl)-[3,3′-bipyridine]-5-carbonitrile] | 0.5 to 1 |  |
| C=Cc1cc(-c2cc(C#N)c(N3CCN(C(=O)C[C@H]4CCC(=O)O4)[C@H](C4CC4)C3)nc2C2CC2)ccn1 [Compound 821] | < 0.5 |  |
| N#Cc1cc(Nc2ccnc(CO)c2)c(C2CC2)nc1N1CCN(C(=O)C[C@H]2CCO2)[C@H](C2CC2)C1 [Compound 824, 6-cyclopropyl-2-((R)-3-cyclopropyl-4-(2-((R)-oxetan-2-yl)acetyl)piperazin-1-yl)-5-((2-(hydroxymethyl)pyridin-4-yl)amino)nicotinonitrile] | < 0.5 |  |
| COc1ccccc1-c1cc(C(C)C)nc(N2CCN(C(=O)c3ccccc3)CC2)c1C#N [Compound 105, 2-(4-benzoylpiperazin-1-yl)-6-isopropyl-4-(2-methoxyphenyl)nicotinonitrile] |  | 1 to 5 |
| Cc1nccc2c(-c3cc(C#N)c(N4CCN(C(=O)C5CC5)[C@H](C5CC5)C4)nc3C3CC3)cccc12 [Compound 497, (R)-2-(4-(cyclopropanecarbonyl)-3-cyclopropylpiperazin-1-yl)-6-cyclopropyl-5-(1-methylisoquinolin-5-yl)nicotinonitrile] | < 0.5 |  |
| COCCC(=O)N1CCN(c2nc(C3CC3)c(-c3ccc(F)cc3)cc2-c2nnco2)C[C@H]1C [Compound 392, (R)-1-(4-(6-cyclopropyl-5-(4-fluorophenyl)-3-(1,3,4-oxadiazol-2-yl)pyridin-2-yl)-2-methylpiperazin-1-yl)-3-methoxypropan-1-one] | < 0.5 |  |

Now from value to compound:

| IC50 [1] [µM] | IC50 [2] [µM] | Structure (SMILES) |
| --- | --- | --- |
| 0.5 to 1 |  | COCCC(=O)N1CCN(c2nc(C3CC3)c(-c3ccnn3C)c(C)c2C#N)C[C@H]1C [Compound 349, (R)-6-cyclopropyl-2-[4-(3-methoxy-propionyl)-3-methyl-piperazin-1-yl]-4-methyl-5-(2-methyl-2H-pyrazol-3-yl)-nicotinonitrile] |
|  | 1 to 5 | CC[C@@H]1CN(c2nc(C(C)C)c(-c3ccccc3)cc2C#N)CCN1C(=O)Cc1cccs1 [Compound 174, (R)-2-(3-ethyl-4-(2-(thiophen-2-yl)acetyl)piperazin-1-yl)-6-isopropyl-5-phenylnicotinonitrile] |
|  | 5 to 15 | CC(C)c1nc(N2CCN(C(=O)c3ccco3)CC2)c(C#N)cc1-c1ccccc1 [Compound 109, 2-(4-(furan-2-carbonyl)piperazin-1-yl)-6-isopropyl-5-phenylnicotinonitrile] |
|  | 1 to 5 | CC(C)c1nc(N2CCN(C(=O)c3ccco3)[C@H](C)C2)c(C#N)cc1-c1ccc(C(F)(F)F)cc1 [Compound 185, (R)-2-(4-(furan-2-carbonyl)-3-methylpiperazin-1-yl)-6-isopropyl-5-(4-(trifluoromethyl)phenyl) nicotinonitrile] |
|  | 5 to 15 | CC(C)c1cc(-c2cccc(F)c2)c(C#N)c(N2CCN(C(=O)c3ccco3)C(C)C2)n1 (stereo not drawn) [Compound 127, 4-(3-fluorophenyl)-2-(4-(furan-2-carbonyl)-3-methylpiperazin-1-yl)-6-isopropylnicotinonitrile] |
|  | ≤ 1 | COCCC(=O)N1CCN(c2nc(C3CC3)c(-c3ccsc3)c(C)c2C#N)C[C@H]1C [Compound 262, (R)-6-cyclopropyl-2-(4-(3-methoxypropanoyl)-3-methylpiperazin-1-yl)-4-methyl-5-(thiophen-3-yl)nicotinonitrile] |
|  | ≤ 1 | COCCC(=O)N1CCN(c2nc(C3CC3)c(-c3cccc(OC)c3)cc2C#N)C[C@H]1C [Compound 236, (R)-6-cyclopropyl-5-(3-methoxyphenyl)-2-(4-(3-methoxypropanoyl)-3-methylpiperazin-1-yl)nicotinonitrile] |
| 0.5 to 1 |  | CNc1cccc(-c2cc(C#N)c(N3CCN(C(=O)CCOC)[C@H](C)C3)nc2C2CC2)c1 [Compound 414, (R)-6-cyclopropyl-2-(4-(3-methoxypropanoyl)-3-methylpiperazin-1-yl)-5-(3-(methylamino)phenyl)nicotinonitrile] |
| 0.5 to 1 |  | COCCC(=O)N1CCN(c2nc(C3CC3)c(Nc3ccc(F)cc3)cc2C#N)C[C@H]1C [Compound 355, (R)-6-cyclopropyl-5-((4-fluorophenyl)amino)-2-(4-(3-methoxypropanoyl)-3-methylpiperazin-1-yl)nicotinonitrile] |
|  | 1 to 5 | COCCC(=O)N1CCN(c2nc(C(C)C)c(Cc3ccccc3)cc2C#N)C[C@H]1C [Compound 239, (R)-5-benzyl-6-isopropyl-2-(4-(3-methoxypropanoyl)-3-methylpiperazin-1-yl)nicotinonitrile] |
|  | 1 to 5 | Cc1ccc(-c2cc(C#N)c(N3CCN(C(=O)Cc4cccs4)[C@H](C)C3)nc2C(C)C)cc1 [Compound 181, (R)-6-isopropyl-2-(3-methyl-4-(2-(thiophen-2-yl)acetyl)piperazin-1-yl)-5-p-tolylnicotinonitrile] |
|  | 1 to 5 | CC(C)c1cc(-c2ccccc2)c(C#N)c(N2CCN(C(=O)Cc3ccccc3)[C@@H](C)C2)n1 [Compound 133, (S)-6-isopropyl-2-(3-methyl-4-(2-phenylacetyl)piperazin-1-yl)-4-phenylnicotinonitrile] |
|  | 1 to 5 | CC(C)c1cc(-c2ccccc2)c(C#N)c(N2CCN(C(=O)c3ccoc3)[C@H](C)C2)n1 [Compound 130, (R)-2-(4-(furan-3-carbonyl)-3-methylpiperazin-1-yl)-6-isopropyl-4-phenylnicotinonitrile] |
|  | ≤ 1 | COCCC(=O)N1CCN(c2nc(C(C)C)c(-c3ccccc3)cc2C#N)C[C@H]1C [Compound 222, (R)-6-isopropyl-2-(4-(3-methoxypropanoyl)-3-methylpiperazin-1-yl)-5-phenylnicotinonitrile] |
|  | ≤ 1 | Cc1cccc(-c2cc(C#N)c(N3CCN(C(=O)c4ccoc4)[C@H](C)C3)nc2C(C)C)c1 [Compound 191] |
|  | ≤ 1 | COCCC(=O)N1CCN(c2nc(C3CC3)c(-c3cccc(C)c3)cc2C#N)C[C@H]1C [Compound 225, (R)-6-cyclopropyl-2-(4-(3-methoxypropanoyl)-3-methylpiperazin-1-yl)-5-m-tolylnicotinonitrile] |
|  | 5 to 15 | CC(C)c1nc(N2CCN(C(=O)c3ccco3)CC2c2ccccc2)c(C#N)cc1-c1ccccc1 (stereo not drawn) [Compound 166, 2-(4-(furan-2-carbonyl)-2-phenylpiperazin-1-yl)-6-isopropyl-5-phenylnicotinonitrile] |
|  | 5 to 15 | CC[C@@H]1CN(c2nc(C(C)C)c(-c3ccccc3)cc2C#N)CCN1C(=O)c1ccco1 [Compound 172, (R)-2-(3-ethyl-4-(furan-2-carbonyl)piperazin-1-yl)-6-isopropyl-5-phenylnicotinonitrile] |
| 0.5 to 1 |  | COCCC(=O)N1CCN(c2nc(C3CC3)c(-c3cccnc3F)c(C)c2C#N)C[C@H]1C [Compound 369, (R)-2-cyclopropyl-2′-fluoro-6-[4-(3-methoxy-propionyl)-3-methyl-piperazin-1-yl]-4-methyl-[3,3′]bipyridinyl-5-carbonitrile] |
